Reference: ChEMBL document CHEMBL1123385, “Stereoselectivity of a potent calcium antagonist, 1-benzyl-3-pyrrolidinyl methyl 2,6-dimethyl-4-(m-nitrophenyl)-1,4-dihydropyridine-3,5-dicarboxylate” (J Med Chem, 1986)

What was measured:
[1] = target: Voltage-gated L-type calcium channel (Rattus norvegicus, UniProt P22002+Q02485+P27732); assay: Inhibition of [3H]nitrendipine binding to L-type calcium channel from rat brain cortex homogenate
Rattus norvegicus = organism: Rattus norvegicus; assay: Hill coefficient of the compound; settings: in vitro
Canis familiaris = assay: The compound was tested for coronary vasodilating activity in anesthetized coronary perfused dogs; format: functional, Canis lupus familiaris

Row | Compound | Ki [1] | Hill coefficient (Rattus norvegicus) | ED100 (Canis familiaris)
1 | COC(=O)C1=C(C)NC(C)=C(C(=O)OCCN(C)Cc2ccccc2)[C@H]1c1cccc([N+](=O)[O-])c1 | 0.499 nM l-1 | 1.286 | 
2 | COC(=O)C1=C(C)NC(C)=C(C(=O)OCCN(C)Cc2ccccc2)[C@@H]1c1cccc([N+](=O)[O-])c1 | 7.11 nM l-1 | 1.241 | 
3 | COC(=O)C1=C(C)NC(C)=C(C(=O)OCCN(C)Cc2ccccc2)C1c1cccc([N+](=O)[O-])c1 (racemic) [NICARDIPINE] | 0.84 nM l-1 | 1.054 | 
4 | COC(=O)C1=C(C)NC(C)=C(C(=O)OC)C1c1ccccc1[N+](=O)[O-] [NIFEDIPINE] |  | 1.105 | 

More lines, main results first:

Row | Ki [1] | Hill coefficient (Rattus norvegicus) | Compound | ED100 (Canis familiaris)
5 | 0.205 nM l-1 | 1.203 | CO/C(O)=C1\C(C)=NC(C)=C(C(=O)O[C@H]2CCN(Cc3ccccc3)C2)[C@H]1c1cccc([N+](=O)[O-])c1.Cl | 0.57 µg
6 | 14.3 nM l-1 | 1.143 | CO/C(O)=C1\C(C)=NC(C)=C(C(=O)O[C@@H]2CCN(Cc3ccccc3)C2)[C@@H]1c1cccc([N+](=O)[O-])c1.Cl | 3.1 µg
7 | 3.09 nM l-1 | 0.752 | CO/C(O)=C1\C(C)=NC(C)=C(C(=O)O[C@@H]2CCN(Cc3ccccc3)C2)[C@H]1c1cccc([N+](=O)[O-])c1.Cl | 1.6 µg
8 | 49.6 nM l-1 | 0.957 | CO/C(O)=C1\C(C)=NC(C)=C(C(=O)O[C@H]2CCN(Cc3ccccc3)C2)[C@@H]1c1cccc([N+](=O)[O-])c1.Cl (racemic) | 9.1 µg
